According to patent US20080312169A1, “Cosmetic use of D-ribose” (priority 2007, published 2008):

How the values were obtained:
NHDF = assay: ATP production by NHDF in culture under conditions of hypoxia; assay type: cell-based, human; conditions: 0.05% D-ribose, 24 h pretreatment, after six hours of severe hypoxia (oxygen<2%)
Procedure: The inventors have measured the effect of D-ribose on the production of ATP by NHDF in culture, under conditions of hypoxia. The cells used were cultivated in flasks of normal human epidermal cells (NHDF) in a medium of DMEM with 10% fetal bovine serum, incubated at 37° C. in an atmosphere of 5% CO2, and 95% air until 80% confluent. On Day 1, a first measure of the level of ATP was determined on the non-treated, non-stressed NHDF. Two sets of six duplicates were 15 pretreated for 24 hours with 0.05% ribose or not treated as control. At Day 2, before the induction of hypoxia, one set of treated and control cells was harvested to measure the level of ATP. The cells of the second set were suspended, the medium renewed with DMEM with 10% fetal bovine serum with HEPES buffer in order to maintain the pH within physiological conditions during hypoxia and with EDTA in order to prevent the agglutination of the cells. The cells were held in an incubator held at 37° C., in which the atmosphere had been previously replaced by nitrogen. The cells were incubated for six hours in a condition of severe hypoxia (oxygen<2%) in the presence of 0.05% D-ribose versus the non-treated control. Recovery of the cells and measurement of the ATP was followed in the treated and control cells. […]

[1] = test system: normal human dermal fibroblasts (NHDF); assay: Oxygen consumption (mitochondrial and cytoplasmic respiration) of NHDF in culture, BD Oxygen Biosensor System; assay type: cell-based; conditions: 0.05% D-ribose, two hours of contact, six wells
Procedure: The inventors measured the effect of D-ribose on mitochondrial and cytoplasmic respiration of normal human dermal fibroblasts (NHDF) in culture. The cells were cultivated at 37° C. under an atmosphere of 5% CO2, in a culture solution of DMEM supplemented with 10% bovine fetal serum. […] Thus, D-ribose augments the consumption of oxygen in the cells, and consequently, the metabolism of cutaneous cells and tissues.

## O=C[C@H](O)[C@H](O)[C@H](O)CO [D-ribose]
NHDF
  recovery of the ATP levels, of the base levels: about 19%
[1]
  augmentation of cytoplasmic respiration over control: 37%
  augmentation of mitochondrial respiration over control: 31%
